Laboratory results reported in patent publication US20160262390A1, “FIELD APPLICATION OF SUGARS TO INCREASE CROP YIELD” (Minn-Dak Farmers Cooperative, priority 2015, published 2016).

How the values were obtained:
sugarbeets = assay: Pre-planting sugar application on sugarbeets, Hickson; type: in vivo, sugarbeet; conditions: for Recoverable Sugar Yield / Recoverable Sugar Yield Increase Compared to Check Average / Sugarbeet Yield: ND
Procedure: (§1) The field trials were conducted simultaneously in two different planting locations for each of the crops. One location was near the community of Foxhome in Wilkin County, Minnesota (hereafter referred to as “Foxhome”) while the second location was near the community of Hickson in Cass County, North Dakota (hereafter referred to as “Hickson”). The Foxhome and Hickson locations are on opposite sides of the Red River along the border of Minnesota and North Dakota and separated by a distance exceeding 40 miles. Generally, the Foxhome location has heavier clay loam soil conditions while Hickson has sandy loam soil conditions.
(§2) At each of the Foxhome and Hickson locations, a total of thirty two (32) treatments were conducted for each crop (sugarbeets, soybeans, corn, wheat). Each treatment was replicated four times arranged in a Randomized Complete Block (RCB) Design in the same field. Each replication consisted of a plot measuring twenty five (25) feet in length and eleven (11) feet in width. In selecting the particular seed types for evaluation, popular commercial varieties to the region were utilized. For the row crops (sugarbeets, soybeans, corn) each replication included a width of six (6) rows with twenty two (22) inch row spacing and having a row length of twenty five (25) feet. The wheat was planted in accordance with standard commercial practices. To reduce/eliminate any treatment impacts between adjacent plots for the crops, only the four (4) interior rows of each plot were treated and evaluated for row crops, while for wheat, only the interior 7.33 feet of each plot were treated and evaluated. With the exception of the treatment program applied to the individual plots, which will be discussed below, conventional commercial growing practices for each planting location were otherwise followed during the field trials. While the individual plots at the same location, Hickson or Foxhome, experienced essentially the same growing conditions throughout the season, there were various differences associated with localized precipitation, general growing conditions, soil classification and the like, which contributed to performance differences between the Hickson and Foxhome locations.
(§3) The treatment regimen at each location for each of the tested crops included two (2) untreated treatments (Treatments 31 and 32) in which no sugar was applied and constitute the control elements. […] Six (6) treatments (Treatments 13-18) included the liquid application of high fructose corn syrup (hereafter “HFCS”) at varying rates. Six treatments (Treatments 19-24) included the liquid application of dextrose (hereafter “LIQDEX”) at varying rates. Six (6) treatments (Treatments 25-30) included the application of powdered cellulose (hereafter “POWCEL”) at varying rates. For the sugar applied in a solid form, granulated or powdered, field application was conducted via conventional broadcast spreading. For the sugar applied in a liquid form, a liquid concentrate was mixed and diluted with water in a tank and a conventional sprayer was configured such that the liquid was sprayed so as to have the same sugar equivalent (measured in pounds/per acre) as the sugar in solid form. Regardless of whether the sugar was applied as a solid or liquid, the sugar was applied directly onto the soil before spring tillage, lightly worked into the ground and followed by planting of the crop seed in the treated ground. A summary of application rates for each plot treatments are contained in Table 7 below and were used consistently with each of the crops (sugarbeets, soybeans, corn, wheat).
To test the impact of pre-planting application rates and sugar source on sugarbeets, identical field trials using Crystal® brand ACH 260 sugarbeet seed were conducted at the Foxhome and Hickson locations. Planting of the sugarbeet seed and harvest of the sugarbeets were conducted on as close to the same dates as practical so as to have essentially the same length growing season. […]

soybeans [1] = assay: Pre-planting sugar application on soybeans, Foxhome; type: in vivo, soybean; conditions: for Yield / Yield Increase Compared to Check: MN
Procedure: as §1, §2, §3
(§4) To test the impact of pre-planting application rates and sugar source on soybeans, identical field trials using Syngenta brand soybean seed were conducted at the Foxhome and Hickson locations. Planting of the soybean seed and harvest of the soybeans were conducted on approximately the same dates so as to have essentially the same growing season. […]

soybeans [2] = assay: Pre-planting sugar application on soybeans, Hickson; type: in vivo, soybean; conditions: for Yield / Yield Increase Compared to Check Average: ND
Procedure: as §1, §2, §3, §4

wheat [3] = assay: Pre-planting sugar application on wheat, Foxhome; type: in vivo; conditions: for Yield / Yield Increase Compared to Check Average: MN
Procedure: as §1, §2, §3
as §4, with “wheat,” for “soybeans,”, “Westbred Mayville wheat” for “Syngenta brand soybean”, “wheat” for “soybean”, “wheat” for “soybeans”, “on” for “on approximately”

wheat [4] = assay: Pre-planting sugar application on wheat, Hickson; type: in vivo; conditions: ND
Procedure: as §1, §2, §3
as §4, with “wheat,” for “soybeans,”, “Westbred Mayville wheat” for “Syngenta brand soybean”, “wheat” for “soybean”, “wheat” for “soybeans”, “on” for “on approximately”

[5] = six rates (25-250 pounds/Acre) per sugar, thirty in all

`OC[C@H]1O[C@@](CO)(O[C@H]2O[C@H](CO)[C@@H](O)[C@H](O)[C@H]2O)[C@@H](O)[C@@H]1O` [LIQSUC, sucrose] was tested, and the “Recoverable Sugar Yield” value (sugarbeets; pre-planting 25 pounds/Acre) was 9363 Pounds/Acre, the “Recoverable Sugar Yield Increase Compared to Check Average” value (sugarbeets; pre-planting 25 pounds/Acre) was −4.55% and the “Sugarbeet Yield” value (sugarbeets; pre-planting 25 pounds/Acre) was 28.83 Tons/Acre. The “Recoverable Sugar Yield” value (sugarbeets; pre-planting 50 pounds/Acre) was 10217 Pounds/Acre, the “Recoverable Sugar Yield Increase Compared to Check Average” value (sugarbeets; pre-planting 50 pounds/Acre) was 4.16% and the “Sugarbeet Yield” value (sugarbeets; pre-planting 50 pounds/Acre) was 32.05 Tons/Acre. For the same compound, the “Recoverable Sugar Yield” value (sugarbeets; pre-planting 100 pounds/Acre) was 9216 Pounds/Acre, the “Recoverable Sugar Yield Increase Compared to Check Average” value (sugarbeets; pre-planting 100 pounds/Acre) was −6.05% and the “Sugarbeet Yield” value (sugarbeets; pre-planting 100 pounds/Acre) was 28.83 Tons/Acre. The “Recoverable Sugar Yield” value (sugarbeets; pre-planting 150 pounds/Acre) was 9089 Pounds/Acre, the “Recoverable Sugar Yield Increase Compared to Check Average” value (sugarbeets; pre-planting 150 pounds/Acre) was −7.34% and the “Sugarbeet Yield” value (sugarbeets; pre-planting 150 pounds/Acre) was 31.95 Tons/Acre. For the same compound, the “Recoverable Sugar Yield” value (sugarbeets; pre-planting 200 pounds/Acre) was 9998 Pounds/Acre, the “Recoverable Sugar Yield Increase Compared to Check Average” value (sugarbeets; pre-planting 200 pounds/Acre) was 1.93% and the “Sugarbeet Yield” value (sugarbeets; pre-planting 200 pounds/Acre) was 32.35 Tons/Acre. For the same compound, the “Recoverable Sugar Yield” value (sugarbeets; pre-planting 250 pounds/Acre) was 9627 Pounds/Acre, the “Recoverable Sugar Yield Increase Compared to Check Average” value (sugarbeets; pre-planting 250 pounds/Acre) was −1.86% and the “Sugarbeet Yield” value (sugarbeets; pre-planting 250 pounds/Acre) was 32.29 Tons/Acre. For the same compound, the “number of treatments showing negative yield benefits compared to check average” value (sugarbeets; six rates per sugar) was “four of the six”, the Yield (soybeans [1]; pre-planting 25 pounds/Acre) was 67.82 Bushels/Acre and the “Yield Increase Compared to Check” value (soybeans [1]; pre-planting 25 pounds/Acre) was −1.05%. For the same compound, the Yield (soybeans [1]; pre-planting 50 pounds/Acre) was 72.08 Bushels/Acre, the “Yield Increase Compared to Check” value (soybeans [1]; pre-planting 50 pounds/Acre) was 5.16% and the Yield (soybeans [1]; pre-planting 100 pounds/Acre) was 71.28 Bushels/Acre. For the same compound, the “Yield Increase Compared to Check” value (soybeans [1]; pre-planting 100 pounds/Acre) was 4.00%, the Yield (soybeans [1]; pre-planting 150 pounds/Acre) was 70.57 Bushels/Acre and the “Yield Increase Compared to Check” value (soybeans [1]; pre-planting 150 pounds/Acre) was 2.96%. The Yield (soybeans [1]; pre-planting 200 pounds/Acre) was 68.33 Bushels/Acre, the “Yield Increase Compared to Check” value (soybeans [1]; pre-planting 200 pounds/Acre) was −0.31% and the Yield (soybeans [1]; pre-planting 250 pounds/Acre) was 72.14 Bushels/Acre. The “Yield Increase Compared to Check” value (soybeans [1]; pre-planting 250 pounds/Acre) was 5.25%, the “number of treatments showing yield improvement compared to check treatment 31” value (soybeans [1]; [5]) was “four of the six” and the Yield (soybeans [2]; pre-planting 25 pounds/Acre) was 61.90 Bushels/Acre. The “Yield Increase Compared to Check Average” value (soybeans [2]; pre-planting 25 pounds/Acre) was 0.24%, the Yield (soybeans [2]; pre-planting 50 pounds/Acre) was 61.87 Bushels/Acre and the “Yield Increase Compared to Check Average” value (soybeans [2]; pre-planting 50 pounds/Acre) was 0.19%. The Yield (soybeans [2]; pre-planting 100 pounds/Acre) was 59.52 Bushels/Acre, the “Yield Increase Compared to Check Average” value (soybeans [2]; pre-planting 100 pounds/Acre) was −3.61% and the Yield (soybeans [2]; pre-planting 150 pounds/Acre) was 59.71 Bushels/Acre. For the same compound, the “Yield Increase Compared to Check Average” value (soybeans [2]; pre-planting 150 pounds/Acre) was −3.30%, the Yield (soybeans [2]; pre-planting 200 pounds/Acre) was 61.36 Bushels/Acre and the “Yield Increase Compared to Check Average” value (soybeans [2]; pre-planting 200 pounds/Acre) was −0.63%. The Yield (soybeans [2]; pre-planting 250 pounds/Acre) was 61.03 Bushels/Acre, the “Yield Increase Compared to Check Average” value (soybeans [2]; pre-planting 250 pounds/Acre) was −1.17% and the “number of treatments showing negative yield benefits compared to check average” value (soybeans [2]; six rates per sugar) was “four of the six”. The Yield (wheat [3]; pre-planting 25 pounds/Acre) was 57.25 Bushels/Acre, the “Yield Increase Compared to Check Average” value (wheat [3]; pre-planting 25 pounds/Acre) was −11.65% and the Yield (wheat [3]; pre-planting 50 pounds/Acre) was 68.06 Bushels/Acre. For the same compound, the “Yield Increase Compared to Check Average” value (wheat [3]; pre-planting 50 pounds/Acre) was 5.03%, the Yield (wheat [3]; pre-planting 100 pounds/Acre) was 67.59 Bushels/Acre and the “Yield Increase Compared to Check Average” value (wheat [3]; pre-planting 100 pounds/Acre) was 4.31%. The Yield (wheat [3]; pre-planting 150 pounds/Acre) was 65.84 Bushels/Acre, the “Yield Increase Compared to Check Average” value (wheat [3]; pre-planting 150 pounds/Acre) was 1.60% and the Yield (wheat [3]; pre-planting 200 pounds/Acre) was 62.49 Bushels/Acre. For the same compound, the “Yield Increase Compared to Check Average” value (wheat [3]; pre-planting 200 pounds/Acre) was −3.56%, the Yield (wheat [3]; pre-planting 250 pounds/Acre) was 63.20 Bushels/Acre and the “Yield Increase Compared to Check Average” value (wheat [3]; pre-planting 250 pounds/Acre) was −2.47%. The “number of treatments showing yield improvement compared to check average” value (wheat [3]; [5]) was “three of the six”, the Yield (wheat [4]; pre-planting 25 pounds/Acre) was 47.09 Bushels/Acre and the “Yield Increase Compared to Check” value (wheat [4]; pre-planting 25 pounds/Acre) was −4.17%. For the same compound, the Yield (wheat [4]; pre-planting 50 pounds/Acre) was 53.46 Bushels/Acre, the “Yield Increase Compared to Check” value (wheat [4]; pre-planting 50 pounds/Acre) was 8.79% and the Yield (wheat [4]; pre-planting 100 pounds/Acre) was 50.09 Bushels/Acre. The “Yield Increase Compared to Check” value (wheat [4]; pre-planting 100 pounds/Acre) was 1.93%, the Yield (wheat [4]; pre-planting 150 pounds/Acre) was 46.03 Bushels/Acre and the “Yield Increase Compared to Check” value (wheat [4]; pre-planting 150 pounds/Acre) was −6.33%. For the same compound, the Yield (wheat [4]; pre-planting 200 pounds/Acre) was 48.31 Bushels/Acre, the “Yield Increase Compared to Check” value (wheat [4]; pre-planting 200 pounds/Acre) was −1.69% and the Yield (wheat [4]; pre-planting 250 pounds/Acre) was 50.24 Bushels/Acre. For the same compound, the “Yield Increase Compared to Check” value (wheat [4]; pre-planting 250 pounds/Acre) was 2.24%.
